This note sets out measurements from PubChem BioAssay AID212 (DTP/NCI, 2004).

Several values for one entry are separate records, joined by “and”; a condition that tells them apart may be missing. Equal values may be shown once. Results filed as inconclusive are left out. *1 amine or outer side, *2 acyl side, *3 side chain or, on linkers, in order; H or OH if unused. Where a SMILES comes first, the peptide text is derived from it. [ ]: non-standard residue; d: D form. The star is where a group is joined. X2 = CCC(=O)CC1CC(C)CC(C(=O)[*:2])N1[*:1]; X1 = CCCCCCCCC(C)C(=O)*; Aib = CC(C)(N)C(=O)O; X3 = CC(CN(C)CCO)N*

The subject of this assay is BDF1 mice, colon carcinoma 38 sc, T/C %. The assay can be described thus: NCI In Vivo Anticancer Drug Screen. Data for tumor model Colon Carcinoma 38 (subcutaneous) in B6D2F1 (BDF1) mice. Conditions: endpoint: median tumor weight (est.), higher = larger tumour. In short, it runs like this:
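Transplantable tumor in mice; compound-treated vs vehicle-dosed controls. Measured survival or tumor size; value = T ÷ C.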

Where [1] appears, read: dose: 12.5 mg/kg/injection, schedule: Q07DX002 (ip), vehicle: Klucel (hydroxypropylcellulose) (HPC).
Setting [2] is: dose: 25.0 mg/kg/injection, schedule: Q07DX002 (ip), vehicle: Klucel (hydroxypropylcellulose) (HPC).
Setting [3] is: dose: 50.0 mg/kg/injection, schedule: Q07DX002 (ip), vehicle: Klucel (hydroxypropylcellulose) (HPC).
Where [4] appears, read: dose: 100.0 mg/kg/injection, schedule: Q07DX002 (ip), vehicle: Klucel (hydroxypropylcellulose) (HPC).
Setting [5] is: dose: 12.5 mg/kg/injection, schedule: Q07DX003 (ip), vehicle: saline with Tween-80.
Setting [6] is: dose: 25.0 mg/kg/injection, schedule: Q07DX003 (ip), vehicle: saline with Tween-80.
[7] abbreviates: dose: 50.0 mg/kg/injection, schedule: Q07DX003 (ip), vehicle: saline with Tween-80.
The mark [8] stands for this setting: dose: 100.0 mg/kg/injection, schedule: Q07DX003 (ip), vehicle: saline with Tween-80.
Setting [9] is: dose: 200.0 mg/kg/injection, schedule: Q07DX003 (ip), vehicle: saline with Tween-80.
Where [10] appears, read: dose: 200.0 mg/kg/injection, schedule: Q07DX002 (ip), vehicle: Klucel (hydroxypropylcellulose) (HPC).
Where [11] appears, read: dose: 12.5 mg/kg/injection, schedule: Q07DX002 (ip), vehicle: saline with Tween-80.
[12] abbreviates: dose: 50.0 mg/kg/injection, schedule: Q07DX002 (ip), vehicle: saline with Tween-80.
[13] abbreviates: dose: 100.0 mg/kg/injection, schedule: Q07DX002 (ip), vehicle: saline with Tween-80.

On to `O=S(CCCl)CCCl`, for which the T/C by setting is: (dose: 0.78 mg/kg/injection, schedule: Q07DX003 (ip), vehicle: Klucel (hydroxypropylcellulose) (HPC)) 57 % of control; (dose: 1.56 mg/kg/injection, schedule: Q07DX003 (ip), vehicle: Klucel (hydroxypropylcellulose) (HPC)) 84 % of control; (dose: 3.12 mg/kg/injection, schedule: Q07DX003 (ip), vehicle: Klucel (hydroxypropylcellulose) (HPC)) 83 % of control; (dose: 6.25 mg/kg/injection, schedule: Q07DX003 (ip), vehicle: Klucel (hydroxypropylcellulose) (HPC)) 87 % of control; under setting [1], 150 % of control; (dose: 12.5 mg/kg/injection, schedule: Q07DX003 (ip), vehicle: Klucel (hydroxypropylcellulose) (HPC)) 84 % of control. In addition, the T/C under setting [2] was 96 % of control; the T/C (dose: 25.0 mg/kg/injection, schedule: Q07DX003 (ip), vehicle: Klucel (hydroxypropylcellulose) (HPC)) was 95 % of control; the T/C under setting [3] was 153 % of control; the T/C under setting [4] is 110 % of control.
As to `OCC12COCN1COC2`, the T/C is 82 % of control and 86 % of control (dose: 25.0 mg/kg/injection, schedule: Q07DX002 (ip), vehicle: saline); 85 % of control and 97 % of control (dose: 400.0 mg/kg/injection, schedule: Q07DX002 (ip), vehicle: saline); 91 % of control (dose: 800.0 mg/kg/injection, schedule: Q07DX002 (ip), vehicle: saline).
Turning to `CN(C)c1nc(N(C)C)nc(N(C)C)n1`, the T/C was 68 % of control under setting [5]; 91 % of control under setting [6]; 112 % of control under setting [7]; 66 % of control under setting [8]; 65 % of control under setting [9].
For the compound `Cc1cc(Nc2ccc3c(c2)OCO3)c2cc3c(cc2n1)OCO3`, the T/C is 86 % of control under setting [3], 85 % of control under setting [4] and 36 % of control under setting [10].
Take `C=C(C)C(=O)O[C@H]1CC2=C[C@@H](C[C@@]3(C)O[C@@H]3[C@H]3OC(=O)C(=C)[C@@H]31)OC2=O`: the T/C is, setting by setting: (dose: 3.12 mg/kg/injection, schedule: Q07DX002 (ip), vehicle: Klucel (hydroxypropylcellulose) (HPC)) 93 % of control; (dose: 6.25 mg/kg/injection, schedule: Q07DX002 (ip), vehicle: Klucel (hydroxypropylcellulose) (HPC)) 112 % of control and 105 % of control; under setting [1], 93 % of control; under setting [2], 90 % of control and 102 % of control; under setting [3], 113 % of control and 100 % of control.
With `O=C(O)C1CC(c2ccccc2)=NN1c1ccccc1` (configuration not stated), the T/C by setting is: (dose: 25.0 mg/kg/injection, schedule: Q07DX002 (ip), vehicle: water) 114 % of control and 103 % of control; (dose: 100.0 mg/kg/injection, schedule: Q07DX002 (ip), vehicle: water) 65 % of control; (dose: 200.0 mg/kg/injection, schedule: Q07DX002 (ip), vehicle: water) 56 % of control and 69 % of control.
For the compound `COC1=C(N)C(=O)c2nc(-c3nc(C(=O)O)c(C)c(-c4ccc(OC)c(OC)c4O)c3N)ccc2C1=O`, the T/C is 110 % of control (dose: 0.05 mg/kg/injection, schedule: Q07DX003 (ip), vehicle: Klucel (hydroxypropylcellulose) (HPC)); 93 % of control (dose: 0.1 mg/kg/injection, schedule: Q07DX003 (ip), vehicle: Klucel (hydroxypropylcellulose) (HPC)); 111 % of control (dose: 0.2 mg/kg/injection, schedule: Q07DX003 (ip), vehicle: Klucel (hydroxypropylcellulose) (HPC)); 83 % of control (dose: 0.4 mg/kg/injection, schedule: Q07DX003 (ip), vehicle: Klucel (hydroxypropylcellulose) (HPC)).
For the compound `C[C@]12C=CC(=O)C=C1CC[C@@H]1[C@@H]2[C@@H](O)C[C@@]2(C)[C@H]1CC[C@]2(O)C(=O)CO`, the T/C (dose: 40.0 mg/kg/injection, schedule: Q07DX003 (ip), vehicle: Klucel (hydroxypropylcellulose) (HPC)) is 100 % of control; the T/C (dose: 80.0 mg/kg/injection, schedule: Q07DX003 (ip), vehicle: Klucel (hydroxypropylcellulose) (HPC)) is 56 % of control; the T/C (dose: 160.0 mg/kg/injection, schedule: Q07DX003 (ip), vehicle: Klucel (hydroxypropylcellulose) (HPC)) was 58 % of control; the T/C (dose: 320.0 mg/kg/injection, schedule: Q07DX003 (ip), vehicle: Klucel (hydroxypropylcellulose) (HPC)) was 30 % of control; the T/C (dose: 640.0 mg/kg/injection, schedule: Q07DX003 (ip), vehicle: Klucel (hydroxypropylcellulose) (HPC)) is 24 % of control.
In the case of `C=C(OP(=O)(OC)OC)Sc1ccccc1C`, the T/C is, setting by setting: (dose: 0.18 mg/kg/injection, schedule: Q07DX002 (ip), vehicle: Klucel (hydroxypropylcellulose) (HPC)) 112 % of control; (dose: 0.37 mg/kg/injection, schedule: Q07DX002 (ip), vehicle: Klucel (hydroxypropylcellulose) (HPC)) 59 % of control; (dose: 0.75 mg/kg/injection, schedule: Q07DX002 (ip), vehicle: Klucel (hydroxypropylcellulose) (HPC)) 101 % of control; (dose: 1.5 mg/kg/injection, schedule: Q07DX002 (ip), vehicle: Klucel (hydroxypropylcellulose) (HPC)) 100 % of control; (dose: 1.56 mg/kg/injection, schedule: Q07DX002 (ip), vehicle: Klucel (hydroxypropylcellulose) (HPC)) 122 % of control.
Consider `CCN(CC)C(C)(C)C(=O)/C=C/c1ccccc1`, for which the T/C (dose: 31.25 mg/kg/injection, schedule: Q07DX002 (ip), vehicle: saline with Tween-80) is 68 % of control; the T/C (dose: 62.5 mg/kg/injection, schedule: Q07DX002 (ip), vehicle: saline with Tween-80) is 39 % of control; the T/C (dose: 125.0 mg/kg/injection, schedule: Q07DX002 (ip), vehicle: saline with Tween-80) was 78 % of control; the T/C (dose: 250.0 mg/kg/injection, schedule: Q07DX002 (ip), vehicle: saline with Tween-80) was 34 % of control.
Regarding `C=CCNc1ccc(C)cc1`, the T/C is 72 % of control under setting [1]; 92 % of control under setting [2]; 66 % of control under setting [3]; 86 % of control under setting [4]; 78 % of control under setting [10].
Turning to `CNC(=O)n1c(N)nc(-c2ccccc2)c1-c1ccccc1`, the T/C is, setting by setting: under setting [11], 80 % of control; (dose: 25.0 mg/kg/injection, schedule: Q07DX002 (ip), vehicle: saline with Tween-80) 99 % of control; under setting [12], 119 % of control; under setting [13], 98 % of control.
Consider `Cc1cc2cc3cc(C)c(N)cc3nc2cc1N`, for which the T/C (dose: 6.25 mg/kg/injection, schedule: Q07DX002 (ip), vehicle: saline with Tween-80) is 95 % of control; the T/C under setting [11] is 109 % of control; the T/C under setting [12] is 54 % of control; the T/C under setting [13] is 89 % of control.
For `CCCCCCCCC(C)C(=O)N1CCCC1C(=O)N1C(CC(=O)CC)CC(C)CC1C(=O)NC(C)C(=O)NC(C)(C)C(=O)NC(C)(C)C(=O)NC(C(=O)NC(C)C(=O)NC(C)(C)C(=O)NC(C)(C)C(=O)NC(C)CN(C)CCO)C(C)CC` (configuration not stated) (X1-P[X2]A[Aib][Aib]IA[Aib][Aib]-X3; configuration not given here), the T/C runs as follows: (dose: 0.31 mg/kg/injection, schedule: Q07DX002 (ip), vehicle: Klucel (hydroxypropylcellulose) (HPC)) 123 % of control; (dose: 1.25 mg/kg/injection, schedule: Q07DX002 (ip), vehicle: Klucel (hydroxypropylcellulose) (HPC)) 86 % of control and 91 % of control; (dose: 2.5 mg/kg/injection, schedule: Q07DX002 (ip), vehicle: Klucel (hydroxypropylcellulose) (HPC)) 119 % of control; (dose: 5.0 mg/kg/injection, schedule: Q07DX002 (ip), vehicle: Klucel (hydroxypropylcellulose) (HPC)) 103 % of control and 104 % of control; (dose: 10.0 mg/kg/injection, schedule: Q07DX002 (ip), vehicle: Klucel (hydroxypropylcellulose) (HPC)) 102 % of control.
As to `CC1=C(/C=C/C(C)=C/C=C/C(C)=C/C=O)C(C)(C)CCC1`, the T/C under setting [13] was 116 % of control.
As for `CO[C@H]1C[C@@H]2CC[C@@H](C)[C@@](O)(O2)C(=O)C(=O)N2CCCC[C@H]2C(=O)O[C@H]([C@H](C)C[C@@H]2CC[C@@H](O)[C@H](OC)C2)CC(=O)[C@H](C)C=C(C)[C@@H](O)[C@@H](OC)C(=O)[C@H](C)C[C@H](C)/C=C/C=C/C=C1C`, the T/C was 40 % of control and 45 % of control under setting [5]; 26 % of control and 45 % of control under setting [6]; 20 % of control and 39 % of control under setting [7]; 33 % of control under setting [8]; 14 % of control and 25 % of control under setting [9]; 14 % of control and 23 % of control (dose: 400.0 mg/kg/injection, schedule: Q07DX003 (ip), vehicle: saline with Tween-80).
